Source: ChEMBL document CHEMBL3259629, “Discovery and optimization of piperidyl-1,2,3-triazole ureas as potent, selective, and in vivo-active inhibitors of α/β-hydrolase domain containing 6 (ABHD6)” (J Med Chem, 2013)

Tests used:
Conditions in all cases: Neuro2a, 3 nM
[1] = target: Prolyl endopeptidase (Mus musculus) (UniProt Q9QUR6)
Description: Inhibition of Perp in mouse Neuro2a cells at 3 nM after 4 hrs by ABPP-SILAC assay

[2] = target: Tripeptidyl-peptidase 2 (Mus musculus) (UniProt Q64514)
Description: Inhibition of Tpp2 in mouse Neuro2a cells at 3 nM after 4 hrs by ABPP-SILAC assay

[3] = target: T1, Lon protease homolog, mitochondrial (Mus musculus) (UniProt Q8CGK3)
T1 sequence (whole entry): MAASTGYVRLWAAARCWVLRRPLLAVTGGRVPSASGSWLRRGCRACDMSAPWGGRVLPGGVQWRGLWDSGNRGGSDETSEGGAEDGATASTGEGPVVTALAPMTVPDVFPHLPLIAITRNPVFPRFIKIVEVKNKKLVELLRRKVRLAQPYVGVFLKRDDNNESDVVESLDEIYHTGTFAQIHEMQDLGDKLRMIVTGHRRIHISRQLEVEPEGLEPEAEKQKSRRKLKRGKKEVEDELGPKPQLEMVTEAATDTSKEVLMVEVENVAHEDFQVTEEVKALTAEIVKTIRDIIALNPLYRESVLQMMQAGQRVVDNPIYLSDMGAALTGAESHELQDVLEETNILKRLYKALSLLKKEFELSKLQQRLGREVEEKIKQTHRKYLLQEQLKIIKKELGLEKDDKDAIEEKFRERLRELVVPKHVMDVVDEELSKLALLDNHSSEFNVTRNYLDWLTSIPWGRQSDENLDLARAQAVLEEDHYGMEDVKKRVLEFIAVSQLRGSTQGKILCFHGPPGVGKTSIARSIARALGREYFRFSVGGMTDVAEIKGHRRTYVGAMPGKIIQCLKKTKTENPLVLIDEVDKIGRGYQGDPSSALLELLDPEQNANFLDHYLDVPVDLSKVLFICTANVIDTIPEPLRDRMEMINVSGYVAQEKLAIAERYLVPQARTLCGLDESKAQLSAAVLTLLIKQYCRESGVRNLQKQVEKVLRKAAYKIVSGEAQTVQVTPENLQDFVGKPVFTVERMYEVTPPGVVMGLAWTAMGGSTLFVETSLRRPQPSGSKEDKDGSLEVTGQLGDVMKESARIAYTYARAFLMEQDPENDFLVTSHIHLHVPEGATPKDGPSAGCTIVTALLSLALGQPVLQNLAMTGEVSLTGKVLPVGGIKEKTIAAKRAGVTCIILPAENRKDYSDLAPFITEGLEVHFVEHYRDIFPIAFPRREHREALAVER
Description: Inhibition of Lonp1 in mouse Neuro2a cells at 3 nM after 4 hrs by ABPP-SILAC assay

[4] = target: T2, Lysosomal protective protein (Mus musculus) (UniProt P16675)
T2 sequence (whole entry): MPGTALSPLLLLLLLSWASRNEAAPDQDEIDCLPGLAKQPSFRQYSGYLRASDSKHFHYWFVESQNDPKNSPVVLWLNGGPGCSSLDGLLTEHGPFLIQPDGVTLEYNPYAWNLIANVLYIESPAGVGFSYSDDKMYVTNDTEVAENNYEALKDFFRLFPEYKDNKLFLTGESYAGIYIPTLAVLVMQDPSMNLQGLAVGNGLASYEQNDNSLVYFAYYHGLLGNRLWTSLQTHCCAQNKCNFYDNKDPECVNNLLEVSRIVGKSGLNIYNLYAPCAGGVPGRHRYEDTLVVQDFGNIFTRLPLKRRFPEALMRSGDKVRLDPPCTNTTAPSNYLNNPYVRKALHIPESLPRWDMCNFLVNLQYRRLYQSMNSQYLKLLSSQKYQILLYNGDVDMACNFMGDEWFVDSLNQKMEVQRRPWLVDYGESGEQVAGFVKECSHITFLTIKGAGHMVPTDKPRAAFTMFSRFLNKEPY
Description: Inhibition of Ctsa in mouse Neuro2a cells at 3 nM after 4 hrs by ABPP-SILAC assay

[5] = target: Platelet-activating factor acetylhydrolase 2, cytoplasmic (Mus musculus) (UniProt Q8VDG7)
Description: Inhibition of Pafah2 in mouse Neuro2a cells at 3 nM after 4 hrs by ABPP-SILAC assay

[6] = target: Patatin-like phospholipase domain-containing protein 7 (Mus musculus) (UniProt A2AJ88)
Description: Inhibition of Pnpla7 in mouse Neuro2a cells at 3 nM after 4 hrs by ABPP-SILAC assay

[7] = target: T3, Hormone-sensitive lipase (Mus musculus) (UniProt P54310)
T3 sequence (whole entry): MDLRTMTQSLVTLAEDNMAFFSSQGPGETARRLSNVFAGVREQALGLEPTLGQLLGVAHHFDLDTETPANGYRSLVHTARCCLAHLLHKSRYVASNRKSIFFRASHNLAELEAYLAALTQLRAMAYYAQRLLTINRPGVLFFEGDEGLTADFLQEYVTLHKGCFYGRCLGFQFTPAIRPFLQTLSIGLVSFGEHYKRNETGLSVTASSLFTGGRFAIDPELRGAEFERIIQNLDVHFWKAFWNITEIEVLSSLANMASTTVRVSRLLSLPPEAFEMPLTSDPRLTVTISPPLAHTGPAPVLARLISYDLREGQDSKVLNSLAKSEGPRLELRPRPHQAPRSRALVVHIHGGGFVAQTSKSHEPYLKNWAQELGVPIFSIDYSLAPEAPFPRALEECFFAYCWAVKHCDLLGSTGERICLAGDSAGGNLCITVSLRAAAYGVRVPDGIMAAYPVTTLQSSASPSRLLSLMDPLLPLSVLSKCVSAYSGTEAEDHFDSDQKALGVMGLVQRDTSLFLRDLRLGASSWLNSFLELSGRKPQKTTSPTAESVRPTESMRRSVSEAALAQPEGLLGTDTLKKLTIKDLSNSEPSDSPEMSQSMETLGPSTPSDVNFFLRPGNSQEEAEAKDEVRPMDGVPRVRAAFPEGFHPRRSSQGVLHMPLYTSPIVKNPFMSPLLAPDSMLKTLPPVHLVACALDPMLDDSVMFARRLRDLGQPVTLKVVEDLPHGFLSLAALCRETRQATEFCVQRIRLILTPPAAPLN
Description: Inhibition of Lipe in mouse Neuro2a cells at 3 nM after 4 hrs by ABPP-SILAC assay

[8] = target: T4, Serine protease HTRA2, mitochondrial (Mus musculus) (UniProt Q9JIY5)
T4 sequence (whole entry): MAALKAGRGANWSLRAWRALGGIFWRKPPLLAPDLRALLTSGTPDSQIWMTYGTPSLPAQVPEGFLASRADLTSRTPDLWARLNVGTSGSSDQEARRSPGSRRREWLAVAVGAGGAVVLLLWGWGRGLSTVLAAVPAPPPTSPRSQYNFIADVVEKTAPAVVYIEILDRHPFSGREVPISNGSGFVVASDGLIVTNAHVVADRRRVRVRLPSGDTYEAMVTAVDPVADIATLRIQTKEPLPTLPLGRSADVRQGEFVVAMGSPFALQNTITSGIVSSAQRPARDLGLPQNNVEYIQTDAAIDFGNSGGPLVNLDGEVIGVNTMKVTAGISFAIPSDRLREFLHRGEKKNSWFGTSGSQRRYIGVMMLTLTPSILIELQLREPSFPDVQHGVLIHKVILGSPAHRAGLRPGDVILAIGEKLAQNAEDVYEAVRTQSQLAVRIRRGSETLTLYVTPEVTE
Description: Inhibition of Htra2 in mouse Neuro2a cells at 3 nM after 4 hrs by ABPP-SILAC assay

Measured: inhibition

Sequence of Patatin-like phospholipase domain-containing protein 7 (Mus musculus) (A2AJ88 whole entry, the tested form may be a part): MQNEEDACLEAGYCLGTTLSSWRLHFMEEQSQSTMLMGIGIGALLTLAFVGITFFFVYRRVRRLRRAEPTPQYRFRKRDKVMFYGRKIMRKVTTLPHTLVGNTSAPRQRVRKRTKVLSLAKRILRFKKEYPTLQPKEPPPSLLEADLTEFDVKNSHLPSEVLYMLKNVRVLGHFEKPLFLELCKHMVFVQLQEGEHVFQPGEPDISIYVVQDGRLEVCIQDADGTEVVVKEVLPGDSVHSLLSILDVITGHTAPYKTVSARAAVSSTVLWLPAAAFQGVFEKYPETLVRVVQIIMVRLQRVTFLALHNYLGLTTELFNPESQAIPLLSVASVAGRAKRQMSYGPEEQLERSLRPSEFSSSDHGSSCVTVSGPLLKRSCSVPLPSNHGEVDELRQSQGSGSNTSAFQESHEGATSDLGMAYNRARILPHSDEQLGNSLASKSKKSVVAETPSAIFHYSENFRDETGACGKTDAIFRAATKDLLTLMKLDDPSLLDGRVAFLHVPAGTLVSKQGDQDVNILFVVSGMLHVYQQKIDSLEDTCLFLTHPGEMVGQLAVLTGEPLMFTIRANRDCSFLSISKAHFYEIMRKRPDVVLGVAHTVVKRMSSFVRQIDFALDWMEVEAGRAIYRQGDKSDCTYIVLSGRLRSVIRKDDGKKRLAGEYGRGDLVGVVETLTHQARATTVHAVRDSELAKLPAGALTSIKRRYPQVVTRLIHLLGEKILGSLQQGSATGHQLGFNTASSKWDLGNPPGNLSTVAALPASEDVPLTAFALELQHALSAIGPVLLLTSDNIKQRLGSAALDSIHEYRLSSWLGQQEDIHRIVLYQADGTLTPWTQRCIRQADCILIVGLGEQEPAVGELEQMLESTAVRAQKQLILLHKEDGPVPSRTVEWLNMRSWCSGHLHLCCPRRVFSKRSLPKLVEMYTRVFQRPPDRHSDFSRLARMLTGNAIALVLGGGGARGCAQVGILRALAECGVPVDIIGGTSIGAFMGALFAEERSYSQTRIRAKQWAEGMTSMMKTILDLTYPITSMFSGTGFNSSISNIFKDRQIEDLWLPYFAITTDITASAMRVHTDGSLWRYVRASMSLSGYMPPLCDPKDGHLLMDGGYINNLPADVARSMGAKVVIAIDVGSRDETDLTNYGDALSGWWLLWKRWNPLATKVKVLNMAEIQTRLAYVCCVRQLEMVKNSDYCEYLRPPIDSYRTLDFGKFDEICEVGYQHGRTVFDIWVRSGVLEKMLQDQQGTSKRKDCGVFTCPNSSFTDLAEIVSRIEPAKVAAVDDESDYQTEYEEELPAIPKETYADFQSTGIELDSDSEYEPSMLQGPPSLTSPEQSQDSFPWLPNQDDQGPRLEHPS
Sequence of Tripeptidyl-peptidase 2 (Mus musculus) (Q64514 whole entry): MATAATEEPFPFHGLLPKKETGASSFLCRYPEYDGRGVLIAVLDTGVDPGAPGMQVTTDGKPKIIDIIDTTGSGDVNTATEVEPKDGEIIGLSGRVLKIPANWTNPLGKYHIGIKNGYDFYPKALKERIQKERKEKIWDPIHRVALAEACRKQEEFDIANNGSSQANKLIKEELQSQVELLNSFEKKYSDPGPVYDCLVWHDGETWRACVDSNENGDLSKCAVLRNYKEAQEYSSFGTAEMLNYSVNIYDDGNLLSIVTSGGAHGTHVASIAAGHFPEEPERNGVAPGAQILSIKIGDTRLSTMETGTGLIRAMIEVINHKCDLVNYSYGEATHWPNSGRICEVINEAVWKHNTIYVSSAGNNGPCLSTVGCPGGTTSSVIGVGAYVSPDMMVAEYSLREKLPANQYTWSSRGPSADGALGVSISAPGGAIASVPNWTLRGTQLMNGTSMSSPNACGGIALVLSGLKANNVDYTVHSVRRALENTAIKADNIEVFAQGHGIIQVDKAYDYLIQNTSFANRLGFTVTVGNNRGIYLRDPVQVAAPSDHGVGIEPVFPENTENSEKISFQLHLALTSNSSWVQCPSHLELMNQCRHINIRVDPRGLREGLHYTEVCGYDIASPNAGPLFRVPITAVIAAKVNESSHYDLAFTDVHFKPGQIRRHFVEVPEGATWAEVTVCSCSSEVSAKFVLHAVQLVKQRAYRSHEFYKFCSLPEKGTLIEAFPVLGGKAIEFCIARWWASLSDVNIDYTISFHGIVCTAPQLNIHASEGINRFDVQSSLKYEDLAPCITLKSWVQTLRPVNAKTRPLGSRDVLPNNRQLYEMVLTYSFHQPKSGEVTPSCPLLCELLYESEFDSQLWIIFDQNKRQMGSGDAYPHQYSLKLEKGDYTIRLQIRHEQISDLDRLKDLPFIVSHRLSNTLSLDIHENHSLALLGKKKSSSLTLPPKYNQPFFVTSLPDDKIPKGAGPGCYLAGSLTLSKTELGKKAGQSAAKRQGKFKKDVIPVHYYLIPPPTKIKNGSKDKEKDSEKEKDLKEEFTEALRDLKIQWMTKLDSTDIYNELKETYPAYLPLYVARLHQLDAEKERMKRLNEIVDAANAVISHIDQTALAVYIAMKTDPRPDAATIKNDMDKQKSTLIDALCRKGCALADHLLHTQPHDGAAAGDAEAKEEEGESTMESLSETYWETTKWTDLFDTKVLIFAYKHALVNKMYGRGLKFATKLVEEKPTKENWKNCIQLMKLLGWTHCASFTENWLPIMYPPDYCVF
Sequence of Platelet-activating factor acetylhydrolase 2, cytoplasmic (Mus musculus) (Q8VDG7 whole entry, the tested form may be a part): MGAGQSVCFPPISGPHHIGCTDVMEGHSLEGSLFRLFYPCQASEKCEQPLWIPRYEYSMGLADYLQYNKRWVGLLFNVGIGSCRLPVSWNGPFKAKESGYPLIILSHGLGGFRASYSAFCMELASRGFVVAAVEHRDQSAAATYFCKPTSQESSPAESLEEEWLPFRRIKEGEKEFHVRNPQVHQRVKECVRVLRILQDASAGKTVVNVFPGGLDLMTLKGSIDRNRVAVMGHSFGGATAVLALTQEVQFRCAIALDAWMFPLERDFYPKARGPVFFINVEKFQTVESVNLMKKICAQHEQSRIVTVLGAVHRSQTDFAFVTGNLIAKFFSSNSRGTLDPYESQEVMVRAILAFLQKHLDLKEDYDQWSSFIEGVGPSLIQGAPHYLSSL
Sequence of Prolyl endopeptidase (Mus musculus) (Q9QUR6 whole entry, looked up): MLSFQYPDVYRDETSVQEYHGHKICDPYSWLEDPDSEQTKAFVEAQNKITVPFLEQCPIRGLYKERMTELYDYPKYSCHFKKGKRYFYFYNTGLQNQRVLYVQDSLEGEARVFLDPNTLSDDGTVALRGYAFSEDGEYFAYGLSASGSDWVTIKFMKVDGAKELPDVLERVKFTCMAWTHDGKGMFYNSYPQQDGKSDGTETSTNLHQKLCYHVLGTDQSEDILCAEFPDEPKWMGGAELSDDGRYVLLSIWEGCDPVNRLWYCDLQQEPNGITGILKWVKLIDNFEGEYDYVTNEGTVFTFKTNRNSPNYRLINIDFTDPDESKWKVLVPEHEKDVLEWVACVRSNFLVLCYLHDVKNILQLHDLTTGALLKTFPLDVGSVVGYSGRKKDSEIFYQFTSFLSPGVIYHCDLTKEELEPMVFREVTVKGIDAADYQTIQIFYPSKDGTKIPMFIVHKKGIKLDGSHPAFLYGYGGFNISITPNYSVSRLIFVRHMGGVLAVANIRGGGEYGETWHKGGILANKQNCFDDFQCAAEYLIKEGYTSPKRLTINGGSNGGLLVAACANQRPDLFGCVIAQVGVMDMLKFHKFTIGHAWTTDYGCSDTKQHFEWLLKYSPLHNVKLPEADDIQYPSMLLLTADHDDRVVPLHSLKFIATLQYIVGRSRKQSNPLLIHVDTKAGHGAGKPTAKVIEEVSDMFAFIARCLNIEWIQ

O=C(O)c1cccc(-c2ccc(-c3cn(C(=O)N4CCCCC4Cc4ccccc4)nn3)cc2)c1 (racemic)
< 50%: [1] | [2] | [3] | [4] | [5] | [6] | [7] | [8]

O=C(N1CCCCC1c1ccccc1)n1cc(-c2ccc(-c3cccc(CO)c3)cc2)nn1 (racemic)
< 50%: [1] | [2] | [3] | [4] | [5] | [6] | [7] | [8]

O=C(c1cccc(-c2ccc(-c3cn(C(=O)N4CCCCC4c4ccccc4)nn3)cc2)c1)N1CCCCC1 (racemic)
< 50%: [1] | [2] | [3] | [4] | [5] | [6] | [7] | [8]
